# Measurements taken from patent publication US20260250318A1, “COMPOSITIONS AND METHODS FOR CROSSING THE BLOOD BRAIN BARRIER” (VOYAGER THERAPEUTICS, INC., priority 2022, published 2026).
# Test system: brain
# Assay: Maturation of TTM-001 capsid, NGS enrichment in brain of CD-1 Outbred mice
# Type: in vivo
# Conditions: NGS fold-enrichment of TTM-001 matured AAV capsid variants in the brain of CD-1 Outbred mice; intravenous 1.0×10^12 VG/dose; 14 days in life; RNA; relative to non-matured TTM-001 control
# From the text: This Example describes maturation of the TTM-001 (SEQ ID NO: 981 (amino acid) and 983 (DNA), comprising SEQ ID NO: 941) and TTM-002 (SEQ ID NO: 982 (amino acid) and 984 (DNA), comprising SEQ ID NO: 2) capsid variants to further enhance their transduction and biodistribution in the central nervous system and evolve the AAV capsid variants to provide further cross-species compatibility. Two approaches were used to mature the TTM-001 and TTM-002 capsid sequences in order to randomize and mutate within and around the peptide insert comprised within loop IV of the capsid variant. […] In the first maturation approach, sets of three contiguous amino acids were randomized across the mutagenesis region in the TTM-001 and TTM-002 sequences, which spanned from position 450 to position 466, numbered according to SEQ ID NO: 981 and 982. In the second maturation approach, mutagenic primers were used to introduce point mutations at a low frequency, scattered across the mutagenesis region in the TTM-001 and TTM-002 sequences ranging from position 449 to position 466, numbered according to SEQ ID NO: 981 and 982. AAV capsid variants arising from each maturation approach for TTM-001 were pooled together and AAV capsid variants arising from each maturation approach for TTM-002 were also pooled together, for subsequent testing and characterization in mice.
# The library of pooled matured AAV capsid variants generated from TTM-001 or library of pooled matured AAV capsid variants generated from the TTM-002 matured AAV capsid variant each were intravenously injected into the tail vein of three female CD-1 Outbred mice (Charles River) at a dose of 1.0×10^12 VG/dose. After 14-days in life, the brains of the mice were isolated and RNA was extracted. Following RNA recovery and RT-PCR amplification, a systematic NGS enrichment analysis was performed to calculate the fold enrichment ratio relative to the corresponding TTM-001 or TTM-002 control, and the peptides comprised within the variants were identified. The data for the TTM-001 matured capsid variants is provided in Table 13 and the data for the TTM-002 matured capsid variants is provided in Table 14.
row,Sequence,Fold enrichment over TTM-001
1,KTINGSGSPHLRFQNQQT,2.186 fold
2,KTINGSGSPHLRRQNQQT,3.493 fold
3,KTINGSGSPHLSCQNQQT,2.277 fold
4,KTINGSGSPHLSWQNQQT,3.047 fold
5,KTINGSGSPHLTWQNQQT,2.637 fold
6,KTINGSGSPHLVCQNQQT,2.493 fold
7,KTINGSGSPHLVFQNQQT,2.376 fold
8,KTINGSGSPHLWSQNQQT,3.857 fold
9,KTINGSGSPHLWTQNQQT,3.034 fold
10,KTINGSGSPHLYGQNQQT,2.277 fold
11,KTINGSGSPHLYMQNQQT,2.615 fold
12,KTINGSGSPHMYAQNQQT,2.060 fold
13,KTINGSGSPHMYLQNQQT,3.061 fold
14,KTINGSGSPHPFLQNQQT,2.916 fold
15,KTINGSGSPHPLFQNQQT,2.233 fold
16,KTINGSGSPHPYAQNQQT,2.598 fold
17,KTINGSGSPHRFKQNQQT,2.223 fold
18,KTINGSGSPHRFRQNQQT,3.698 fold
19,KTINGSGSPHRLRQNQQT,2.998 fold
20,KTINGSGSPHRRLQNQQT,2.030 fold
21,KTINGSGSPHRRMQNQQT,2.004 fold
22,KTINGSGSPHRRRQNQQT,3.754 fold
23,KTINGSGSPHRRSQNQQT,2.497 fold
24,KTINGSGSPHRSRQNQQT,2.270 fold
25,KTINGSGSPHRTRQNQQT,3.190 fold
26,KTINGSGSPHRWAQNQQT,2.350 fold

row,Sequence,Fold enrichment over TTM-001
1,KTINGSGSPHSALWNQQT,2.261 fold
2,KTINGSGSPHSCAQNQQT,2.030 fold
3,KTINGSGSPHSCLLNQQT,3.127 fold
4,KTINGSGSPHSCLQNQQT,3.559 fold
5,KTINGSGSPHSCSQNQQT,3.428 fold
6,KTINGSGSPHSEIVNQQT,4.931 fold
7,KTINGSGSPHSFARNQQT,2.367 fold
8,KTINGSGSPHSFITNQQT,2.868 fold
9,KTINGSGSPHSFLLNQQT,2.341 fold
10,KTINGSGSPHSFLRNQQT,3.384 fold
11,KTINGSGSPHSFLVNQQT,2.624 fold
12,KTINGSGSPHSFRLNQQT,2.158 fold
13,KTINGSGSPHSFVLNQQT,3.382 fold
14,KTINGSGSPHSFVRNQQT,2.110 fold
15,KTINGSGSPHSFVVNQQT,2.335 fold
16,KTINGSGSPHSGLWNQQT,2.350 fold
17,KTINGSGSPHSHMENQQT,2.259 fold
18,KTINGSGSPHSHWQNQQT,2.676 fold
19,KTINGSGSPHSIFSNQQT,2.110 fold
20,KTINGSGSPHSIWQNQQT,5.883 fold
21,KTINGSGSPHSKAARTQT,2.266 fold
22,KTINGSGSPHSKACASQT,2.775 fold
23,KTINGSGSPHSKACPLQT,2.285 fold
24,KTINGSGSPHSKACSAQT,2.754 fold
25,KTINGSGSPHSKAFARQT,3.082 fold
26,KTINGSGSPHSKAFPRQT,3.220 fold

row,Sequence,Fold enrichment over TTM-001
1,KTINGSGSPHSKAFRLQT,4.849 fold
2,KTINGSGSPHSKAFRPQT,2.499 fold
3,KTINGSGSPHSKAFTRQT,2.518 fold
4,KTINGSGSPHSKAGCGQT,5.341 fold
5,KTINGSGSPHSKAGRGQT,2.058 fold
6,KTINGSGSPHSKAHRLQT,2.603 fold
7,KTINGSGSPHSKAHRQQT,2.117 fold
8,KTINGSGSPHSKAHRSQT,2.819 fold
9,KTINGSGSPHSKAKHLQT,2.870 fold
10,KTINGSGSPHSKAKLRQT,3.976 fold
11,KTINGSGSPHSKAKSRQT,2.739 fold
12,KTINGSGSPHSKALCRQT,2.048 fold
13,KTINGSGSPHSKALKRQT,2.836 fold
14,KTINGSGSPHSKALRFQT,3.894 fold
15,KTINGSGSPHSKALRRQT,4.330 fold
16,KTINGSGSPHSKALRSQT,2.648 fold
17,KTINGSGSPHSKALRYQT,3.076 fold
18,KTINGSGSPHSKALWRQT,2.015 fold
19,KTINGSGSPHSKANKSQT,2.056 fold
20,KTINGSGSPHSKANRMQT,2.508 fold
21,KTINGSGSPHSKAPNHLT,2.324 fold
22,KTINGSGSPHSKAQAFRT,2.022 fold
23,KTINGSGSPHSKAQANRT,2.255 fold
24,KTINGSGSPHSKAQASKT,2.546 fold
25,KTINGSGSPHSKAQATRT,2.019 fold
26,KTINGSGSPHSKAQCLFT,2.421 fold

row,Sequence,Fold enrichment over TTM-001
1,KTINGSGSPHSKAQCRLT,2.304 fold
2,KTINGSGSPHSKAQCYVT,2.261 fold
3,KTINGSGSPHSKAQEELT,2.162 fold
4,KTINGSGSPHSKAQFLRT,2.156 fold
5,KTINGSGSPHSKAQFRVT,2.231 fold
6,KTINGSGSPHSKAQFSLT,2.000 fold
7,KTINGSGSPHSKAQFSRT,2.847 fold
8,KTINGSGSPHSKAQFSVT,2.015 fold
9,KTINGSGSPHSKAQFTLT,2.277 fold
10,KTINGSGSPHSKAQFVLT,2.006 fold
11,KTINGSGSPHSKAQFVRT,2.596 fold
12,KTINGSGSPHSKAQFWVT,2.050 fold
13,KTINGSGSPHSKAQGFRT,2.279 fold
14,KTINGSGSPHSKAQGVKT,2.002 fold
15,KTINGSGSPHSKAQGVRT,2.188 fold
16,KTINGSGSPHSKAQHLRT,2.741 fold
17,KTINGSGSPHSKAQHSRT,3.227 fold
18,KTINGSGSPHSKAQILVT,2.009 fold
19,KTINGSGSPHSKAQIRLT,3.279 fold
20,KTINGSGSPHSKAQITLT,3.177 fold
21,KTINGSGSPHSKAQKRLT,3.872 fold
22,KTINGSGSPHSKAQKRST,2.151 fold
23,KTINGSGSPHSKAQLAKT,2.238 fold
24,KTINGSGSPHSKAQLFKT,2.385 fold
25,KTINGSGSPHSKAQLGKT,2.000 fold
26,KTINGSGSPHSKAQLGRT,2.069 fold

row,Sequence,Fold enrichment over TTM-001
1,KTINGSGSPHSKAQLHRT,2.618 fold
2,KTINGSGSPHSKAQLILT,2.358 fold
3,KTINGSGSPHSKAQLIVT,2.235 fold
4,KTINGSGSPHSKAQLKLT,2.125 fold
5,KTINGSGSPHSKAQLLKT,2.985 fold
6,KTINGSGSPHSKAQLPWT,2.169 fold
7,KTINGSGSPHSKAQLRIT,2.179 fold
8,KTINGSGSPHSKAQLRKT,2.689 fold
9,KTINGSGSPHSKAQLRRT,3.825 fold
10,KTINGSGSPHSKAQLSIT,2.784 fold
11,KTINGSGSPHSKAQLSKT,2.035 fold
12,KTINGSGSPHSKAQLTLT,2.641 fold
13,KTINGSGSPHSKAQLTVT,4.026 fold
14,KTINGSGSPHSKAQLVKT,2.376 fold
15,KTINGSGSPHSKAQLVLT,2.508 fold
16,KTINGSGSPHSKAQLVVT,3.654 fold
17,KTINGSGSPHSKAQLYRT,4.108 fold
18,KTINGSGSPHSKAQMKCT,2.039 fold
19,KTINGSGSPHSKAQMVRT,2.426 fold
20,KTINGSGSPHSKAQNAKL,2.486 fold
21,KTINGSGSPHSKAQNAKS,2.009 fold
22,KTINGSGSPHSKAQNARH,2.127 fold
